According to patent US20200377568A1, “Novel IL-4-/IL-13-derived peptide compounds for the treatment or prevention of neurodegenerative or neuroinflammatory diseases” (Universitätsmedizin der Johannes Gutenberg-Universität Mainz, priority 2018, published 2020):

Tests used:
CD4+ T cells = experiment: TH2 differentiation of naive T cells; format: cell-based, mouse; conditions: different concentrations, FIG. 4B
Protocol: (§1) A-B: Effects of incubation with IL-4 and different concentrations of Link4 and Link13 on the differentiation of A: CD11b^+ bone marrow-derived macrophages (BMDMs) into F80^+CD206^+ cells, and B: CD4^+ T cells into Gata3^+ cells. C-D: FACS results for different populations of T cells and CD11b^+MHCII^+ monocytes/macrophages/microglia of immune cells isolated from C: spleen and D: central nervous system (CNS) of EAE mice treated with PBS, IL-4 or Link4.
In order to investigate whether Link4 and Link13 are able to modulate immune cells, in vitro assays were performed on bone marrow-derived macrophages (BDMBs) and on naïve T cells.
For the isolation of T lymphocytes 5-8 week old C57BL/6 mice were sacrificed by cervical dislocation and the spleens and lymph nodes (LN) were isolated and rubbed trough a 100 μm cell strainer into a 50 ml tube with washing medium (5% FCS, 1% P/S,1% HEPES in PBS). After washing, the cells were centrifuged for 5 min at 550 g at 4° C. To remove the red blood cells the […] was re-suspended in lysis buffer followed by centrifugation (5 min, 550 g, 4° C.). The cells were resuspended in MACS buffer and magnetic lymphocyte sorting was performed on ice, using the MidiMACS and QuadroMACS Seperators. A CD4 untouched and CD8 touched cell sort was performed a washing step in ml MACS buffer (5 min, 550 g, 4° C.). Cells were incubated with CD4 T cell biotin antibody cocktail (Miltenyi Biotec) in MACS buffer for 5 min at 4° C. Subsequently, anti-biotin microbeads and CD8 microbeads in MACS buffer was added. CD8 microbeads were added to reduce the possible contamination of CD8^+ lymphocytes. After 10 min of incubation at 4° C. the cells were washed again and resuspended in MACS buffer. MACS columns were pre equilibrated and topped with pre-separation filters (30 μm). A maximum of 300×10^6 cells were added to each column followed by 3 consecutive washing steps with MACS buffer. […] The purity of the magnetic cells sorts was assessed by comparing pre- and post-sort samples by flow cytometry. […]

[1] = tested on: immune cells isolated from spleen; experiment: FACS of immune cells from spleen of EAE mice after nasal treatment; format: in vivo, mouse; conditions: intranasal treatment of EAE mice
Protocol: as §1
Subsequently, the effects of IL-4 and Link4 on immune cells were analysed when applied intranasally, similarly as in FIG. 3B. Since nasally applied treatments can enter the periphery (lungs, blood stream) it was of utmost importance to check whether the substances affected the lymphocyte populations in the spleen. A reduction was found of CD8^+ cytotoxic T-cells for Link4, whereas all CD4^+ T helper cell types were unchanged. The CD11 b+MHCII+ population of monocytes/macrophages was also not changed.
CNS and spleens were removed from EAE mice treated with nasal IL-4, Link4 or PBS at d35 and immune cells were isolated as previously described (M. Paterka, J. O. Voss, J. Werr, E. Reuter, S. Franck, T. Leuenberger, J. Herz, H. Radbruch, T. Bopp, V. Siffrin, and F. Zipp, Dendritic cells tip the balance towards induction of regulatory T cells upon priming in experimental autoimmune encephalomyelitis. J Autoimmun 67, 108-114 (2017)). For in vitro stimulation of T cells, anti-CD3 (145-2C11) and anti-CD28 (37.51) were used. The following antibodies were used for flow cytometry with the BD FACSCanto II (BD Bioscience): anti-CD4 PEcγ7 (RM4-5), anti-CD8 FITC (53-6.7), anti-CD3APC (145-2c11), anti-CD11 b bio (M1/70), anti-MHCII PE (AF6-120.1), anti-CD11 b V450 (HL311B), anti-CD45 AF605 (30-F11), anti-GM-CSF PE (MP1-22E9), anti-IL17 APC (eBio17B7), anti-TNFα AF700 (MP6-XT22), anti-IFN-γV450 (XMG1.2), anti-GATA-3 PE (TWAZ), anti-FOXP3 PEcy7(FZK-16s), anti-IL-10 APC (JESS-16E3), anti-CD4 V450 (RM4-5). All antibodies were purchased from eBioscience or Biolegend.

Sequence: RARSEIIGIGSKSIMQMDY (listed as Mus musculus) [Link4]
- differentiation of CD4+ T cells into Gata3+ cells (CD4+ T cells): did not take place
- CD4+ T helper cell types [1]: unchanged
- CD8+ cytotoxic T-cells [1]: reduction
- CD11b+MHCII+ population of monocytes/macrophages [1]: not changed
